Test results reported in patent US20050004132A1, “Nitrogenous tetrahydropyridyl-alkyl-heterocycles with tnf activity” (priority 2001, published 2005).
Structures can show the parent of a compound that is named as a salt.

melting point [°C] | Structure (SMILES)
175 to 177 | Fc1cccc(C2=CCN(CCc3cccc(-c4ccccn4)c3)CC2)c1 (as salt: oxalate)
182 to 186 | FC(F)(F)c1cccc(C2=CCN(CCc3cccc(-c4ccccn4)c3)CC2)c1 (as salt: oxalate)
126 to 129 | FC(F)(F)c1cccc(C2=CCN(CCc3cccc(-c4ccccn4)c3)CC2)n1 (as salt: oxalate)

More lines, now with the values behind:

Structure (SMILES) | melting point [°C]
Clc1cccc(C2=CCN(CCc3cccc(-c4ccncc4)c3)CC2)n1 (as salt: oxalate) | 183 to 186
Cc1ccc(-c2cccc(CCN3CC=C(c4cccc(C(F)(F)F)c4)CC3)c2)cn1 (as salt: oxalate) | 170 to 173
FC(F)(F)c1cccc(C2=CCN(CCc3cccc(-c4cnccn4)c3)CC2)c1 (as salt: oxalate) [12] | 205 to 207
FC(F)(F)c1cccc(C2=CCN(CCc3cccc(-c4cnccn4)c3)CC2)c1 (as salt: oxalate) [14] | 199 to 201
